Reference: EP0060776B1, “Medicaments for the treatment of obesity and hyperlipoidemia” (SOMACHIM S.A., priority 1981, dated 1982)

Legend:
[1] = 5-day tolerance study in obese human volunteers; assay type: in vivo, homme; conditions: 5 obese volunteers, 0,3 mg daily in 3 oral doses, 5 days
Experimental: On a administré à un groupe de 5 volontaires obèses une dose journalière de 0,3 mg d'acide 3,5- dilodo-3'-isopropylthyroacétique en 3 prises orales, durant une première période de 5 jours durant lesquels la tolérance fut vérifiée.

[2] = Weight gain of genetically obese and normal Zucker rats, daily gavage for 4 weeks; assay type: in vivo, rattes Zucker
Text: On a notamment étudié les effets de l'acide 3,5-diiodo-3'-isopropyl-thyroacétique sur la prise de poids de la ratte génétiquement obèse, par administration au moyen d'une sonde oesophagienne et en comparaison avec des rattes normales.
(§1) Les animaux employés sont des rattes Zucker âgées de 7 à 8 semaines au début de l'expérimentation. Les animaux ont été placés en cages individuelles et recevaient ad libitum une alimentation équilibrée et vitaminée spéciale pour rats, identique pour tous les lots. La boisson était également présentée ad libitum. Les lots d'animaux ont été établis de telle sorte que le poids-de départ soit sensiblement identique pour les témoins et les traités, chaque lot comporte 6 animaux.
(§2) On a administré une dose journalière de 17,5 µg (30n mol) par 100 g. de poids corporel pendant 4 semaines. Les poids moyens des animaux traités et non traités ont été notés chaque fin de semaine chez les témoins et chez les obèses. Les résultats sont rassemblés dans le tableau ci-dessous.

[3] = Blood cholesterol of the treated Zucker rats; assay type: in vivo, rattes Zucker
Text: as §1, §2
La cholestérolémie a été dosée chez les animaux dont les courbes pondérales et de consommation alimentaire ont été rapportées ci-dessus. Les résultats sont les suivants : • Rats normaux non traités 0,9-1 g par litre (2,5 mmol par l.) • Rats normaux traités (4 semaines) 0,9-1 g par litre (2,5 mmol par 1.) • Rats génétiquement obèses non traités • 1,7-1,8 (X = 1,75) g par litre (4,51 mmol par litre) • Rats génétiquement obèses traités (4 semaines) • 1,1 g par litre (2,87 mmol par litre)

Patch tests in humans = assay type: in vivo, homme; conditions: human
[4] = Weekly food consumption of genetically obese and normal Zucker rats; assay type: in vivo, rattes Zucker; parameters: Consommation d'aliments: unit not given here; conditions: for Consommation d'aliments: weekly, treated
Text: as §1, §2
Par ailleurs, la consommation hebdomadaire d'aliments a été notée et les résultats rassemblés dans le tableau ci-dessus.
Enfin le tableau suivant rassemble pour chaque semaine l'observation du rapport : • R = (consommation hebdomadaire (CH))/(gain de poids hebdomadaire (GPH)) [formula]

[5] = Magnusson and Kligman sensitisation test; assay type: in vivo, cobaye; conditions: guinea pig
Text: De plus, un test de Manusson et Kligman a été pratiqué chez le cobaye. Ce test prédictif s'est révélé négatif, c'est-à-dire qu'aucun animal n'a montré une quelconque sensibilisation d'ordre allergique au produit.

[6] = 4-week oral treatment of hospitalised obese patients; assay type: in vivo, homme; conditions: for POIDS Après (J+30): 0,3 mg daily orally, 1 400 cal/j diet
Experimental: Après cet essai d'autres volontaires obèses ont été traités par l'acide 3,5-dilodo-3'-isopropyl- thyroacétique à la dose journalière de 0,3 mg en 2 prises orales durant 4 semaines. La tolérance fut surveillée très attentivement (malades hospitalisés) et fut parfaite.
Le poids des 6 patients obèses hospitalisés sous régime hypocalorique, hypoglucidique, hyperproti- dique à 1 400 cal/j et traités comme il est indiqué ci-dessus a régressé. Le tableau ci-après rassemble les résultats obtenus.

[7] = Acute oral toxicity (DL50) in the rat; conditions: in vivo
Text: La toxicité de l'acide 3,5-diiodo-3'-isopropyt-thyroacétique a également été examinée sur le rat.

[8] = 30-day repeated-dose toxicity in rats at 1/5 of the DL50; assay type: in vivo
Text: Par ailleurs, le 1/5 de la dose L 50 a été administré à 20 rats durant 30 jours, 7 jours sur 7. Aucune mort n'a été constatée. […] La formule sanguine est normale.

[9] = 6 obese patients, 0,3 mg daily, 4 weeks

Compound: CC(C)c1cc(Oc2c(I)cc(CC(=O)O)cc2I)ccc1O [acide 3,5-diiodo-3'-isopropyl-thyroacétique]
- tolérance: tension artérielle, rythme cardiaque, transaminases et phosphatases, glucose, urée sanguine, créatinine urinaire [1]: aucun paramètre n'a subi de modification
- Poids moyens ([2]; genetically obese Zucker rats (Obèses), treated, 17,5 µg per 100 g daily, day 7, initial mean weight 135 g): 148 g
- Poids moyens ([2]; genetically obese Zucker rats (Obèses), treated, 17,5 µg per 100 g daily, day 14, initial mean weight 135 g): 168 g
- Poids moyens ([2]; genetically obese Zucker rats (Obèses), treated, 17,5 µg per 100 g daily, day 21, initial mean weight 135 g): 190 g
- Poids moyens ([2]; genetically obese Zucker rats (Obèses), treated, 17,5 µg per 100 g daily, day 28, initial mean weight 135 g): 206 g
- prise de poids ([2]; genetically obese Zucker rats, 17,5 µg per 100 g body weight): ralentit la prise de poids
- Poids moyens ([2]; normal Zucker rats (Témoins), treated, 17,5 µg per 100 g body weight daily by gavage, day 7, initial mean weight 102 g): 119 g
- Poids moyens ([2]; normal Zucker rats (Témoins), treated, 17,5 µg per 100 g daily, day 14, initial mean weight 102 g): 137 g
- Poids moyens ([2]; normal Zucker rats (Témoins), treated, 17,5 µg per 100 g daily, day 21, initial mean weight 102 g): 152 g
- Poids moyens ([2]; normal Zucker rats (Témoins), treated, 17,5 µg per 100 g daily, day 28, initial mean weight 102 g): 163 g
- croissance ([2]; normal Zucker rats, 17,5 µg per 100 g body weight): ne modifie pas significativement la croissance
- taux de cholestérol ([3]; animals with normal cholesterol level): n'a pas d'effet
- cholestérolémie ([3]; genetically obese rats treated 4 weeks, untreated obese rats 1,7-1,8): 1,1 g par litre
- cholestérolémie ([3]; genetically obese rats treated 4 weeks, untreated obese rats 4,51): 2,87 mmol par litre
- taux de cholestérol ([3]; hypercholesterolemic animals): baisser sensiblement
- cholestérolémie ([3]; normal rats treated 4 weeks, untreated normal rats 0,9-1): 0,9-1 g par litre
- cholestérolémie ([3]; normal rats treated 4 weeks, untreated normal rats 2,5): 2,5 mmol par 1.
- patchtests (Patch tests in humans): n'était pas allergogène
- consommation alimentaire ([4]; normal animals): ne modifie pas la consommation alimentaire
- consommation alimentaire ([4]; obese animals): réduit celle des animaux obèses
- effet anorexigène ([4]; rat, concluded from the ratio weekly consumption / weekly weight gain): aucun effet anorexigène
- Consommation d'aliments ([4]; normal Zucker rats (Témoins), day 7, initial mean consumption 78): 83
- Consommation d'aliments ([4]; normal Zucker rats (Témoins), day 14, initial mean consumption 78): 112
- Consommation d'aliments ([4]; normal Zucker rats (Témoins), day 21, initial mean consumption 78): 120
- Consommation d'aliments ([4]; normal Zucker rats (Témoins), day 28, initial mean consumption 78): 118
- Consommation d'aliments ([4]; obese Zucker rats (Obèses), day 7, initial mean consumption 118): 124
- Consommation d'aliments ([4]; obese Zucker rats (Obèses), day 14, initial mean consumption 118): 131
- Consommation d'aliments ([4]; obese Zucker rats (Obèses), day 21, initial mean consumption 118): 148
- Consommation d'aliments ([4]; obese Zucker rats (Obèses), day 28, initial mean consumption 118): 142
- sensibilisation d'ordre allergique [5]: négatif
- taux de cholestérol sanguin [6, 9]: notablement été abaissé
- transaminases, phosphatases, uricémie, créatinurie [6, 9]: aucune modification
- glycémie ([6]; 6 obese patients, 4 weeks, the patent attributes the effect probably to the diet): a diminué également de manière significative
- poids ([6]; obese humans, statement in words): baisse de poids très substantielle
- POIDS Après (J+30) ([6]; obese patient 1, before (J-0) 115): 107
- POIDS Après (J+30) ([6]; obese patient 2, before (J-0) 108): 101
- POIDS Après (J+30) ([6]; obese patient 3, before (J-0) 97): 89
- POIDS Après (J+30) ([6]; obese patient 4, before (J-0) 103): 93
- POIDS Après (J+30) ([6]; obese patient 5, before (J-0) 85): 81
- POIDS Après (J+30) ([6]; obese patient 6, before (J-0) 111): 104
- tolérance ([6]; obese volunteers, hospitalised, 0,3 mg daily in 2 oral doses, 4 weeks): parfaite
- observation of behaviour and growth [7]: aucun trouble de comportement ni de croissance
- LD50 at 336 h ([7]; po, solution by oesophageal tube, 12 animals): 5.4 mg/kg
- mortality ([8]; 20 rats, 1/5 of the DL50 daily for 30 days): Aucune mort
- autopsy, macroscopic state of the organs ([8]; rat, in vivo): aucun organe n'était macroscopiquement modifié à l'exception d'une légère pâleur des thyroïdes
- composantes biochimiques principales, glycémie, uricémie, urémie ([8]; rat, in vivo): évoluent dans les limites habituelles à l'espèce
- formule sanguine ([8]; rat, in vivo): normale
- histologie du foie, rate, rein, thyroïde, surénales ([8]; rat, in vivo): n'a rien révélé d'anormal
